The text below walks through data of patent US7405051B2, “Method of screening antiplatelet agents” (Astellas Pharma Inc., priority 2000, dated 2008).

The term Kd denotes a measure of binding affinity in units of concentration.

Assay [1] deals with membrane fraction of the host cell C6-15 not expressing the HORK3 protein. The assay is described as follows: [3H]-2MeSADP binding to membrane fraction of host cell C6-15 not expressing HORK3 protein. On the set-up: species or system rat. The text has this: (§1) The C6-15 cells expressing the HORK3 protein prepared in Example 5 were taken and washed, and then suspended in 20 mmol/L Tris-HCl (pH7.4) containing 5 mmol/L EDTA and a protease inhibitor cocktail set (Complete™; manufactured by Boeringer Mannheim). The whole was homogenized by using a POLYTRON, and ultracentrifuged. The pellet was suspended in 50 mmol/L Tris-HCl (pH7.4) containing 1 mmol/L EDTA, 100 mmol/L NaCl, 0.1% BSA, and Complete™ to obtain a membrane fraction.
After [^3H]-2MeSADP (manufactured by Moravek Biochemical) was added to 20 μg of the membrane fraction as a final concentration of 0.25 to 50 nmol/L, and was incubated in 250 μL of 50 mmol/L Tris-HCl (pH7.4) containing 1 mmol/L EDTA, 100 mmol/L NaCl, 0.1% BSA, and Complete™ at room temperature for 1 hour, the whole was collected on a glass filter by using a cell harvester. A microscintillator was added to the glass filter, and then a total amount of binding to the membrane fraction was measured by using a liquid scintillation counter. Further, an amount of non-specific binding to the membrane fraction was measured by adding 2MeSADP (a final concentration=50 μmol/L) in the above assay. […] In contrast, such a specific binding was not observed in the membrane fraction of the host cell C6-15 not expressing the HORK3 protein.

The target of assay [2] is HORK3 protein (human ADP receptor P2TAC) (Homo sapiens, UniProt Q9H244). The assay is described as follows: [3H]-2MeSADP binding assay on membrane fraction of C6-15 cell expressing HORK3 protein. The following applies: Scatchard analysis.
From the text: as §1
After [^3H]-2MeSADP (manufactured by Moravek Biochemical) was added to 20 μg of the membrane fraction as a final concentration of 0.25 to 50 nmol/L, and was incubated in 250 μL of 50 mmol/L Tris-HCl (pH7.4) containing 1 mmol/L EDTA, 100 mmol/L NaCl, 0.1% BSA, and Complete™ at room temperature for 1 hour, the whole was collected on a glass filter by using a cell harvester. A microscintillator was added to the glass filter, and then a total amount of binding to the membrane fraction was measured by using a liquid scintillation counter. Further, an amount of non-specific binding to the membrane fraction was measured by adding 2MeSADP (a final concentration=50 μmol/L) in the above assay.
A microscintillator was added to the glass filter, and then radioactivity was measured by using a liquid scintillation counter. Further, radioactivity was measured by not adding the compound and by adding 2MeSADP (a final concentration=10 μmol/L) in the above assay, as a total amount of binding and an amount of non-specific binding, respectively.

HORK3 protein (human ADP receptor P2TAC), sequence (Q9H244 whole entry): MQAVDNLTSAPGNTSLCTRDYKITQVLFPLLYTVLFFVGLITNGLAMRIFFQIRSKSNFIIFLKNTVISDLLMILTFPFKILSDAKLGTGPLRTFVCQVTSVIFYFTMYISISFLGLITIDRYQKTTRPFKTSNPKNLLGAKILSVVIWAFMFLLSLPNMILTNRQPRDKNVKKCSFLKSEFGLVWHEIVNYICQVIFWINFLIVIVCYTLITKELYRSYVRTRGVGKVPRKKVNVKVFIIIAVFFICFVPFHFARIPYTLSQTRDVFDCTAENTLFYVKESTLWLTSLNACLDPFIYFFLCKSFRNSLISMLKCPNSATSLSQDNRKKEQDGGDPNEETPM

Consider `CSc1nc(N)c2ncn([C@@H]3O[C@H](COP(=O)(O)OP(=O)(O)O)[C@@H](O)[C@H]3O)c2n1` [[^3H]-2MeSADP, [^3H] 2-methylthio-ADP], for which the “specific binding to the membrane fraction” value in assay [1] is “not observed”. In addition, in assay [2] (0.25 to 50 nmol/L, room temperature 1 hour, read-out: dissociation constant Kd of binding to the membrane fraction), the Kd is 0.27 nM. In addition, the “maximum binding Bmax” value in assay [2] (membrane fraction of C6-15 cell expressing HORK3) came to 3.7 pmol/mg.
